Structures can show the parent of a compound that is named as a salt.
What was measured:
[1] = system: KRAS mutation-positive human cancer cell line NCI-H358; experiment: In vivo antitumor activity, NCI-H358-transplanted models (Example 5); parameters: species or system nude mice; settings: sodium salt of compound 1 0.25 mg/kg orally once a day and/or TNO155 5 mg/kg orally twice a day, 21 days
Method: (§1) Use in combination of the sodium salt of the compound 1 and TNO155 was evaluated for its in vivo antitumor activity using nude mice in which any of KRAS mutation-positive human cancer cell lines NCI-H1373, NCI-H358 and NCI-H441 (all, ATCC) was transplanted. The NCI-H1373 cells, the NCI-H358 cells, and the NCI-H441 cells were subcutaneously transplanted at 5×10^6, 1×10^7, and 5×10^6, respectively, per mouse to the mice. The mice were grouped (n=5) when a tumor volume reached approximately 150 to 300 mm^3.
(§2) The NCI-H1373-, NCI-H358- or NCI-H441-transplanted models received the single-agent administration or combined administration of the sodium salt of the compound 1 and TNO155. The sodium salt of the compound 1 was dissolved in solvent A for administration. TNO155 was diluted with 0.5% Tween 80 and 0.5% methyl cellulose prepared with injectable distilled water (solvent D) for administration.
Administration to the NCI-H358-transplanted models was performed as described below. The sodium salt of the compound 1 and the solvent D were administered at 0.25 mg/kg and 10 ml/kg, respectively, to the single-agent administration group of the sodium salt of the compound 1. TNO155 and the solvent A were administered at 5 mg/kg and 10 ml/kg, respectively, to the single-agent administration group of TNO155. […]
(§3) The tumor volumes of the mice were calculated according to the expression (4). […]

[2] = system: phosphorylation of MEK and ERK and binding between KRAS and GTP within human cancer cells (NCI-H2122, NCI-H1373, NCI-H441, HPAC); experiment: In vitro RAS signal inhibitory activity evaluation (Western blot); settings: for attenuation of inhibition of pMEK and pERK by lapse of time (Western blot, FIGS. 2 and 3): cells recovered after 4, 24 or 72 hours, single-agent or combined treatment; for inhibition of pMEK, pERK, DUSP4 and DUSP6 (Western blot, FIGS. 2 and 3): 3, 10 or 30 nmol/L compound 1, 1000 nmol/L TNO155, 100 nmol/L GDC-1971
Method: The human cancer cells used were KRAS mutation-positive human lung cancer cell lines NCI-H2122 (KRAS-G12C mutation), NCI-H1373 (KRAS-G12C mutation), NCI-H441 (KRAS-G12V mutation) and HPAC (KRAS-G12D) (all, ATCC). These cells were inoculated to a three-dimensional culture plate PrimeSurface (Sumitomo Bakelite Co., Ltd.) containing a medium. The plate inoculated with the cells was cultured at 37° C. in a 5% carbon dioxide incubator for 24 hours. […] The plate thus subjected to single-agent treatment or combined treatment was cultured at 37° C. in a 5% carbon dioxide incubator. After a lapse of 4 hours, 24 hours or 72 hours, the cells were recovered. The recovered cells were lysed with Cell Lysis Buffer (Cell Signaling Technology, Inc.) containing protease and phosphatase inhibitors (Thermo Fisher Scientific Inc.) to obtain a protein solution.
RAS-GTP, an activated form of RAS, was recovered from a portion of the obtained protein solution using Active Ras Pull-Down and Detection Kit (Thermo Fisher Scientific Inc.). SDS-PAGE was carried out using the obtained RAS-GTP concentrated solution and the protein solution, and migrated proteins were transferred to a PVDF membrane using Trans-Blot Turbo Transfer System (Bio-Rad Laboratories, Inc.). After blocking, the PVDF membrane was reacted with a primary antibody and a secondary antibody in this order. The chemiluminescence of protein bands was caused with Chemi-lumi One Super (Nacalai Tesque, Inc.). The bands were detected with ChemiDoc Touch Imaging System (Bio-Rad Laboratories, Inc.).
“KRAS-GTP” depicts KRAS bound with GTP. “pMEK” and “pERK” depict phosphorylated MEK and ERK, respectively.

[3] = system: KRAS mutation-positive human cancer cell line NCI-H441; experiment: In vivo antitumor activity, NCI-H441-transplanted models (Example 5); parameters: species or system nude mice; settings: sodium salt of compound 1 0.125 or 0.25 mg/kg orally once a day and/or TNO155 5 or 10 mg/kg orally twice a day, 13 days
Method: as §1, §2
Administration to the NCI-H441-transplanted models was performed as described below. The sodium salt of the compound 1 and the solvent D were administered at 0.125 mg/kg or 0.25 mg/kg and 10 ml/kg, respectively, to the single-agent administration group of the sodium salt of the compound 1. […]
as §3

[4] = system: KRAS mutation-positive human cancer cell line NCI-H1373; experiment: In vivo antitumor activity, NCI-H1373-transplanted models (Example 5); parameters: species or system nude mice; settings: sodium salt of compound 1 0.25 mg/kg orally once a day and/or TNO155 10 mg/kg orally twice a day, 30 days
Method: as §1, §2
Administration to the NCI-H1373-transplanted models was performed as described below. The sodium salt of the compound 1 and the solvent D were administered at 0.25 mg/kg and 10 ml/kg, respectively, to the single-agent administration group of the sodium salt of the compound 1. […]
as §3

[5] = system: KRAS mutation-positive human cancer cell line OV56; experiment: In vivo antitumor activity, OV56-transplanted models (Example 4); parameters: species or system SCID mice; settings: sodium salt of compound 1 0.25 mg/kg orally once a day for 10 days and/or bevacizumab 2.5 mg/kg intraperitoneal twice a week
Method: (§7) The cells of each line were subcutaneously transplanted at 5×10^6 per mouse to the mice. The mice were grouped (n=5) when a tumor volume reached 200 to 300 mm^3.
Administration to the OV56-transplanted models was performed as described below. […] The solvent A and physiological saline were administered at 20 ml/kg and 10 ml/kg, respectively, to a control group.

[6] = system: KRAS mutation-positive mouse colon cancer cell line CT26; experiment: In vivo antitumor activity, CT26-transplanted models (Example 6); parameters: species or system BALB/C mice; settings: sodium salt of compound 1 1 mg/kg orally once a day and/or anti-PD-L1 antibody 10 mg/kg intravenous twice a week, 21 days
Method: (§4) Use in combination of the sodium salt of the compound 1 and an anti-PD-L1 antibody was evaluated for its in vivo antitumor activity using BALB/C mice in which a KRAS mutation-positive mouse colon cancer cell line CT26 (Crown Bioscience) was transplanted and C57BL/6J mice in which a KRAS mutation-positive mouse lung cancer tissue slice mLU6054 (Crown Bioscience) was transplanted. The CT26 cells and the mLU6054 tissue slice were subcutaneously transplanted at 5×10^5 and a diameter of […], respectively, per mouse to the mice. The mice were grouped (n=8) when a tumor volume reached approximately 60 to 85 mm^3.
(§5) The CT26- or mLU6054-transplanted models received the single-agent administration or combined administration of the sodium salt of the compound 1 and the anti-PD-L1 antibody. The sodium salt of the compound 1 was dissolved in solvent E for administration. The anti-PD-L 1 antibody was diluted with PBS for administration.
(§6) Administration to the CT26- or mLU6054-transplanted models was performed as described below. The sodium salt of the compound 1 and PBS were administered at 1 mg/kg and 10 ml/kg, respectively, to the single-agent administration group of the sodium salt of the compound 1. […]
as §3

[7] = system: KRAS-G12C mutation-positive human cancer cell line MIA PaCa-2; experiment: In vivo antitumor activity, MIA PaCa-2 xenograft mice (Example 3); parameters: species or system nude mice; settings: sodium salt of compound 1 0.25 mg/kg and/or sotorasib 10 mg/kg, orally once a day for 14 days
Method: (§8) This evaluation employed xenograft mice in which a KRAS-G12C mutation-positive human cancer cell line MIA PaCa-2 or NCI-H2122 (both, ATCC) was transplanted. The xenograft mice were prepared by subcutaneously transplanting 5×10^6 human cells per mouse to nude mice. After cell transplantation, the mice were grouped (n=8) when a tumor volume reached 200 to 340 mm^3.
The sodium salt of the compound 1 was dissolved in 10% DMSO/10% Cremophor EL/15% HP-β-CD (2-hydroxypropyl-β-cyclodextrin)/15% polyethylene glycol-400/50% injectable distilled water (solvent A) for administration. […] The sodium salt of the compound 1 and the solvent B were administered at 0.25 mg/kg and 20 ml/kg, respectively, to the single-agent administration group of the sodium salt of the compound 1. […] The solvent A and the solvent B were administered at 20 ml/kg and 20 ml/kg, respectively, to a control group. […] After the completion of the administration period, an observation period of 22 days was established.
The tumor volumes of the mice were calculated according to the expression (4) given below.
The body weights of the mice were measured.

[8] = system: KRAS mutation-positive human cancer cell line NCI-H441; experiment: In vivo antitumor activity, NCI-H441-transplanted models (Example 4); parameters: species or system nude mice; settings: sodium salt of compound 1 0.0625 mg/kg orally once a day for 10 days and/or bevacizumab 2.5 mg/kg intraperitoneal twice a week
Method: as §7
Administration to the NCI-H441-transplanted models was performed as described below. […] The solvent A was administered at 20 ml/kg to a control group.

[9] = system: KRAS mutation-positive mouse lung cancer tissue slice mLU6054; experiment: In vivo antitumor activity, mLU6054-transplanted models (Example 6); parameters: species or system C57BL/6J mice; settings: sodium salt of compound 1 1 mg/kg orally once a day and/or anti-PD-L1 antibody 10 mg/kg intravenous twice a week, 21 days
Method: as §4, §5, §6, §3

[10] = system: KRAS-G12C mutation-positive human cancer cell line NCI-H2122; experiment: In vivo antitumor activity, NCI-H2122 xenograft mice (Example 3); parameters: species or system nude mice; settings: sodium salt of compound 1 0.25 or 0.75 mg/kg and/or adagrasib 100 mg/kg, orally once a day for 21 days
Method: as §8
The solvent A and the solvent C were administered at 10 ml/kg and 20 ml/kg, respectively, to a control group.
The tumor volumes of the mice were calculated according to the expression (4) given below. […] The ordinates of graphs (a) and (c) of FIG. 17 depict the tumor volumes (mm^3), and the abscissas thereof depict the number of days after cell transplantation.
The body weights of the mice were measured. […] The ordinates of graphs (b) and (d) of FIG. 17 depict the relative body weight change (%), and the abscissas thereof depict the number of days after cell transplantation.

C[C@@H]1OCC2(CCN(c3cnc(Sc4ccnc(N)c4Cl)c(N)n3)CC2)[C@@H]1N [TNO155, (3S,4S)-8-(6-amino-5-((2-amino-3-chloropyridin-4-yl)thio)pyrazin-2-yl)-3-methyl-2-oxa-8-azaspiro[4.5]decan-4-amine, reference compound]
tumor volume compared with the control group (FIG. 19B) [1]: suppressed increase in tumor volume | attenuation of inhibition of pMEK and pERK by lapse of time (Western blot, FIGS. 2 and 3) [2]: tended to be attenuated as time passed | inhibition of pMEK, pERK, DUSP4 and DUSP6 (Western blot, FIGS. 2 and 3) ([2]; single-agent treatment): inhibited pMEK, pERK, DUSP4 and DUSP6 | tumor volume compared with the control group (FIG. 19C) [3]: suppressed increase in tumor volume | tumor volume compared with the control group (FIG. 19A) [4]: suppressed increase in tumor volume

N[C@@H]1c2ccccc2OC12CCN(c1cnc3c(N4CCCc5ncccc54)n[nH]c3n1)CC2 [GDC-1971, (R)-1′-(3-(3,4-dihydro-1,5-naphtyridin-1(2H)-yl)-1H-pyrazolo[3,4-b]pyridin-6-yl)-3H-spiro[benzofuran-2,4′-piperidin]-3-amine]
attenuation of inhibition of pMEK and pERK by lapse of time (Western blot, FIGS. 2 and 3) [2]: tended to be attenuated as time passed | inhibition of pMEK, pERK, DUSP4 and DUSP6 (Western blot, FIGS. 2 and 3) ([2]; single-agent treatment): inhibited pMEK, pERK, DUSP4 and DUSP6

CNS(=O)(=O)[N]([Na+])c1nccc(Cc2cc(C(N)=O)c(Nc3ccc(C4CC4)cc3F)c(F)c2F)c1F [sodium salt of the compound 1]
tumor volume compared with the control group (FIG. 18b) [5]: suppressed increase in tumor volume | tumor volume compared with the control group (FIG. 19B) [1]: suppressed increase in tumor volume | tumor volume compared with the control group (FIG. 20a) [6]: suppressed increase in tumor volume | tumor volume compared with the control group (FIG. 17a) [7]: suppressed increase in tumor volume | tumor volume compared with the control group (FIG. 18a) [8]: suppressed increase in tumor volume | tumor volume compared with the control group (FIG. 20b) [9]: suppressed increase in tumor volume | tumor volume compared with the control group (FIG. 17c) [10]: suppressed increase in tumor volume | tumor volume compared with the control group (FIG. 19C) [3]: suppressed increase in tumor volume | tumor volume compared with the control group (FIG. 19A) [4]: suppressed increase in tumor volume

CNS(=O)(=O)Nc1nccc(Cc2cc(C(N)=O)c(Nc3ccc(C4CC4)cc3F)c(F)c2F)c1F [compound 1, 2-(4-cyclopropyl-2-fluoro-anilino)-3,4-difluoro-5-[[3-fluoro-2-(methylsulfamoylamino)-4-pyridyl]methyl]benzamide]
attenuation of inhibition of pMEK and pERK by lapse of time (Western blot, FIGS. 2 and 3) [2]: tended to be attenuated as time passed | inhibition of pMEK and pERK (Western blot, FIG. 1) ([2]; single-agent treatment, after 4 hours and 24 hours, 300 nmol/L compound 1): inhibited pMEK and pERK | inhibition of pMEK, pERK, DUSP4 and DUSP6 (Western blot, FIGS. 2 and 3) ([2]; single-agent treatment): inhibited pMEK, pERK, DUSP4 and DUSP6

Reference: US20250262194A1, “PHARMACEUTICAL FOR TREATING OR PREVENTING CANCER” (CHUGAI SEIYAKU KABUSHIKI KAISHA, priority 2022, published 2025)
